Laboratory results as given in US20210301038A1, “POLYSIALIC ACID AND DERIVATIVES THEREOF, PHARMACEUTICAL COMPOSITION AND METHOD OF PRODUCING POLYSIALIC ACID” (Medizinische Hochschule Hannover (MHH), priority 2018, published 2021).

System: NMDAR-EPSCs (GluN1/GluN2B receptors)
Test: Evoked NMDAR-EPSCs, whole-cell patch-clamp of layer V pyramidal neurons in sham- or endoNF-treated mPFC slices
Assay type: cell-based, mouse
Settings: for inhibition of NMDAR-EPSC amplitude: sham-treated mPFC slices, DP12 1 μg/ml, then subsequently applied 0.3 μM Ro 25-6981
Source text: Each mouse was quickly sacrificed by cervical dislocation. After decapitation, the brain was rapidly removed from the skull and placed in ice-cold artificial cerebrospinal fluid (aCSF) equilibrated with 95% O2/5% CO2, which was composed of the following (in mM): 250 sucrose, 24 NaHCO3, 25 glucose, 2.5 KCl, 1.25 NaH2PO4, 2 CaCl2, and 1.5 MgCl2 (osmolarity 345-350 mOsm/kg, pH 7.4). Using a VT1200S vibratome (Leica, Nussloch, Germany), coronal slices containing the prelimbic and infralimbic cortices (1.9-1.3 mm anterior to bregma) were cut 350 μm or 400 μm thick, for patch clamp and extracellular recordings, respectively, in the same sucrose-containing aCSF. Then, the slices were transferred to a slice holding chamber filled with recording aCSF (osmolarity 300-305 mOsm/kg, pH 7.4) that contained 120 mM NaCl instead of sucrose (Eckhardt et al., 2000) and was continuously gassed with 95% O2/5% CO2.
For endoNF treatment in C57BL/6J mice, slices were first allowed to recover for 20 min at room temperature (22-24° C.) in recording aCSF and were then placed in a 24-well plate to be incubated in 2 ml of aCSF without (sham) or with addition of endoNF (10 μg/ml) at 35° C. for 2 hours. The 24-well plate was installed in a water bath (ED, Julabo, Seelbach, Germany). For field excitatory postsynaptic potential (fEPSP) recordings in knockout and transgenic mice, mPFC slices were incubated in recording aCSF for >2 hours at room temperature before recordings. For patch-clamp recordings in knockout mice, slices were incubated first at 35° C. for 20 min and then at room temperature for >30 min before recordings started. The aCSF was continuously gassed with 95% O2/5% CO2 during all incubation steps and recordings.
For whole-cell patch-clamp recordings, layer V pyramidal neurons were visualized using a SliceScope Pro 6000 equipped with a 40× water-immersion objective and infrared differential interference contrast microscopy (Scientifica, Uckfield, UK). Pyramidal cells were identified by their triangular soma and long apical dendrites, and synaptically evoked excitatory postsynaptic currents (EPSCs) were recorded using patch pipettes (3-5 MQ) fabricated using borosilicate glass capillaries (wall thickness 0.315, length 100, outer diameter 1.5 mm, Hilgenberg) and a DMZ-Zeitz puller (Zeitz Instruments GmbH, Martinsried, Germany). The intracellular pipette solution contained the following (in mM): 140.7 Cs-methane-sulfonate, 5 NaCl, 1 MgCl2, 0.2 EGTA, 10 HEPES, 3 ATP-Mg, 0.3 Na-GTP, and 3.1 QX-314 (osmolarity 295 mOsm/kg, adjusted to pH 7.2 with CsOH). EPSCs were evoked by electrical pulses (0.2 ms) at 0.033 Hz via a glass pipette placed in layer II/III of the mPFC (identically to fEPSPs). Mixed EPSCs showing a fast AMPAR-mediated component and a slow NMDAR-mediated component were recorded at a −60 mV holding potential in whole-cell voltage-clamp mode in normal aCSF. The stimulation intensity was adjusted to evoke mixed EPSCs with amplitudes of approximately 300 pA. The slow NMDAR-mediated component of EPSCs was pharmacologically isolated at −60 mV in modified aCSF containing low Mg^2+ (0.1 mM) and high Ca^2+ (3.2 mM, for adjustment of divalent cation concentrations), the selective antagonist of α-amino-3-hydroxy-5-methyl-4-isoxazolepropionic acid (AMPA)/kainate receptors NBQX (10 μM), and the selective antagonist of γ-aminobutyric acid (GABA)B receptors CGP-55845 (2 μM) (Chen et al., 2003). The washout of Mg^2+ required at least 25 min. Recordings at a holding potential near the resting membrane potential allowed us to obtain stable NMDAR-EPSC recordings from pyramidal cells lasting for 1-1.5 hours. Series resistance (Rs, range 10-25 MΩ) was compensated (20-30%) and monitored continuously. Neurons in which Rs changed by more than 20% throughout the experiment were not included in the analysis. In voltage-clamp mode, membrane potential was not corrected for liquid junction potential. […]

Compound | reduction of EPSC amplitude on subsequent application after DP1 (endoNF-treated slices, 0.3 μM) | reduction of NMDAR-EPSC amplitude on subsequent application after DP12 (endoNF-treated slices, 0.3 μM Ro 25-6981 after DP12) | inhibition of NMDAR-EPSC amplitude | decrease of NMDAR-EPSC amplitude (endoNF-treated slices, 1 μg/ml) | inhibition as % of the mean inhibition produced by Ro 25-6981 applied alone (endoNF-treated slices, same time window, estimated)
C[C@@H](CN1CCC(Cc2ccccc2)CC1)[C@@H](O)c1ccc(O)cc1.O=C(O)/C=C\C(=O)O [Ro 25-6981, (αR,βS)-α-(4-hydroxyphenyl)-β-methyl-4-(phenylmethyl)-1-piperidinepropanol maleate] | ~20% | marginally | no significant inhibition | – | –
(α(2→8)Neu5Ac)12 [DP12] | – | – | no significant inhibition | ~25% | ~90%
